Experimental data taken from US20250027127A1, “C[…] BACTERIA” (priority 2021, published 2025).

Key:
[1] = room temperature
Clz9 = experiment: In vitro assays with Clz9 wild type and variants; assay type: biochemical, Streptomyces sp. CNH-287; details: 12 hours, 37° C., pH 7.5
Procedure: (§1) The in vitro assays were performed following a modified procedure that was previously reported.^1 Assays (0.1 mL) contained 100 mM potassium phosphate buffer pH 7.5, 0.1 mg/mL^−1 catalase, 10 μL DMSO, 1 μL of a 20 mM stock solution of substrate and were initiated by addition of 20 μM wild type Clz9 or Tcz9 or their respective variants, unless otherwise altered to investigate the thermal and solvent effects on enzyme activity or product stability during time course experiments. Assays were allowed to incubate for 12 hat 37° C. before quenching with 150 μL acetonitrile. Assays were then centrifuged at 14000×g for 30 minutes and passed through a […] filter before injecting 50 μL of the solution for LC-MS analysis at a flow rate of 0.75 mL/min with a mobile phase combination of water+0.1% formic acid (A) and acetonitrile+0.1% formic acid (B) using a gradient as follows: 50% (B), 0 to 2 minutes; 50 to 100% (B), 2 to 10 min; 100% (B), 10 to 17 min; 100% to 50% (B), 17 to 18 min; 50% (B), 18 to 20 minutes.

Tcz9 = experiment: In vitro assays with Tcz9 wild type and variants; assay type: biochemical, Actinomycete sp. AJS-327; details: 12 hours, 37° C., pH 7.5
Procedure: as §1

Tcz9 T405Y = assay type: cell-based, Actinomycete sp. AJS-327; details: I mM substrate, IL culture, 48 hours
[2] = test system: daurichromenic acid (DCA) synthase; details: cited from earlier work

SMILES	stability in aqueous solutions [1]	activity with Tcz9 T124F (Tcz9)	activity with the Clz9 enzymes (wild type and three variants) (Clz9)	activity with the Tcz9 enzymes (wild type and three variants) (Tcz9)	other results
O=C1C=C2C(=C(O)/C1=c1\ccc3cc(Cl)c(Cl)n13)C(=O)n1c2cc(Cl)c1Cl [compound 6]	unexpectedly stable				
CCCCCc1cc(O)c(C/C=C(\C)CCC=C(C)C)c(O)c1C(=O)O [compound 12a, cannabigerolic acid]		abolished activity			activity with wild type Clz9 (Clz9; 5 mol %): showed activity; activity with Clz9 F156T (Clz9): nearly consumed all; activity with Clz9 T438Y (Clz9): increased conversion; activity with wild type Tcz9 (Tcz9; 5 mol %): showed activity; activity with Tcz9 E368N (Tcz9): consumed all; activity with Tcz9 T405Y (Tcz9): increased conversion; conversion of substrate to products 15a and 17a (Tcz9 T405Y): approximately 80%; activity with DCA synthase [2]: no activity
CC(C)=CCC/C(C)=C/CC/C(C)=C/Cc1c(O)cc(C)c(C(=O)O)c1O [compound 19, grifolic acid]		completely abolished activity	no activity	three of the four Tcz9 enzymes fully consumed	
CC(C)=CCC/C(C)=C/Cc1c(O)cc(C)c(C(=O)O)c1O [compound 12c, cannabigerorcinic acid]			slightly different activity profile than 12b and 12a	slightly different activity profile than 12b and 12a	
O=C1C=C2C(=C(O)/C1=c1/ccc3cc(Cl)c(Cl)n13)C(=O)n1c2cc(Cl)c1Cl [compound 7]	unexpectedly stable				
